Drawing on publication PMC8286840, “Identifying SARS-CoV-2 antiviral compounds by screening for small molecule inhibitors of Nsp3 papain-like protease” (Biochemical Journal, 2021), this text covers remaining activity for 31 compounds.

Where a name gives a salt, the structure may show the parent alone. Read-outs that look alike come from different tables or passages of the source.

In assay [1] the target is T1, SARS-CoV-2 PLpro (nsp3 1564–1878) (Severe acute respiratory syndrome coronavirus 2, UniProt P0DTD1). The assay is described as follows: biochemical. Also on record: FRET-quenched peptide (Pro3) cleavage by PLpro, 10 min pre-incubation, slope over 20 min, normalised to no-compound control. The conditions noted are these: high concentration screen, read-out: % of control remaining.

Assay [2] deals with T1, SARS-CoV-2 PLpro (nsp3 1564–1878). The assay is described as follows: biochemical. Also on record: FRET-quenched peptide (Pro3) cleavage by PLpro, 10 min pre-incubation, slope over 20 min, normalised to no-compound control. The conditions noted are these: low concentration screen, read-out: % of control remaining.

Regarding `CC1=C(C)C(=O)C(C(CCCCCC(=O)O)c2ccccc2)=C(C)C1=O` (centres unmarked) [Seratrodast], the remaining activity at 3.75 µM is 102% in assay [1] (Well no.=3857) and 103% in assay [1] (Well no.=7375). The figures for the remaining activity at 1.25 µM in assay [2] (Well no.=3857) and in assay [2] (Well no.=7375) were 98.1% and 103%, respectively.
On to `c1ccc2c(CCNc3ccc(Nc4ccncc4)cc3)c[nH]c2c1` [Serdemetan], for which, in assay [1] (Well no.=6730), the remaining activity at 3.75 µM came to 101%. Moreover, the remaining activity at 1.25 µM in assay [2] (Well no.=6730) came to 97.7%.
Turning to `NCCc1c[nH]c2ccc(O)cc12` [Serotonin hydrochloride], the remaining activity at 3.75 µM in assay [1] (Well no.=616) came to 100%. Further, the remaining activity at 1.25 µM in assay [2] (Well no.=616) was found to be 98.2%.
As for `Clc1ccc(C(Cn2ccnc2)OCc2csc3c(Cl)cccc23)c(Cl)c1` (centres unmarked) [Sertaconazole nitrate], in assay [1] (Well no.=5411), the remaining activity at 3.75 µM is 93%. The remaining activity at 1.25 µM in assay [2] (Well no.=5411) was 89.7%.
As to `Clc1ccc(C(Cn2ccnc2)OCc2csc3c(Cl)cccc23)c(Cl)c1` (centres unmarked) [Sertaconazole], in assay [1] (Well no.=1840), the remaining activity at 3.75 µM stood at 98.3%. The remaining activity at 1.25 µM in assay [2] (Well no.=1840) was determined as 101%.
As for `O=C1NCCN1CCN1CCC(c2cn(-c3ccc(F)cc3)c3ccc(Cl)cc23)CC1` [Sertindole], the remaining activity at 3.75 µM in assay [1] (Well no.=5420) came to 102%; in assay [1] (Well no.=6604), 96.1%. In addition, the remaining activity at 1.25 µM is 98.4% in assay [2] (Well no.=5420) and 93.4% in assay [2] (Well no.=6604).
Regarding `O=C(O)Cn1c2c(c3cc(F)ccc31)CN(C(=O)c1cccc3ccccc13)CC2` [Setipiprant], the remaining activity at 3.75 µM in assay [1] (Well no.=7707) turned out to be 103%. Also, the remaining activity at 1.25 µM in assay [2] (Well no.=7707) was found to be 99.9%.
On to `CN1CCC2=C(C1)c1ccccc1Cc1ccccc12` [Setiptiline (maleate)], for which the remaining activity at 3.75 µM in assay [1] (Well no.=6907) came to 101%. Also, the remaining activity at 1.25 µM in assay [2] (Well no.=6907) came to 101%.
Consider `CN1CCC2=C(C1)c1ccccc1Cc1ccccc12` [Setiptiline], for which the remaining activity at 3.75 µM in assay [1] (Well no.=6857) worked out at 94.5%. Moreover, in assay [2] (Well no.=6857), the remaining activity at 1.25 µM came to 98.8%.
Turning to `O=C(O)C1=C[C@@H](O)[C@@H](O)[C@H](O)C1` [Shikimic acid], the results for the remaining activity at 3.75 µM in assay [1] (Well no.=3116) and in assay [1] (Well no.=7209) were 98.6% and 102%, respectively. The remaining activity at 1.25 µM was 98.2% in assay [2] (Well no.=3116) and 104% in assay [2] (Well no.=7209).
As for `CC(C)CC(N(C)C)C1(c2ccc(Cl)cc2)CCC1` (centres unmarked) [Sibutramine], the remaining activity at 3.75 µM in assay [1] (Well no.=2249) came to 98.7%. Also, the remaining activity at 1.25 µM in assay [2] (Well no.=2249) turned out to be 95.2%.
Regarding `CN/C(=N\c1ccc(C2=NNC(=O)CC2C)cc1)NC#N` (centres unmarked) [Siguazodan], in assay [1] (Well no.=2154), the remaining activity at 3.75 µM is 94.5%. Also, the remaining activity at 1.25 µM in assay [2] (Well no.=2154) was 91.7%.
As to `CCCc1nn(C)c2c(=O)[nH]c(-c3cc(S(=O)(=O)N4CCN(C)CC4)ccc3OCC)nc12` [Sildenafil Mesylate], the remaining activity at 3.75 µM in assay [1] (Well no.=8206) came to 103%. For the same compound, the remaining activity at 1.25 µM in assay [2] (Well no.=8206) came to 106%.
In the case of `CCCc1nn(C)c2c(=O)[nH]c(-c3cc(S(=O)(=O)N4CCN(C)CC4)ccc3OCC)nc12` [Sildenafil citrate], in assay [1] (Well no.=4821), the remaining activity at 3.75 µM is 94.2%. Moreover, the remaining activity at 1.25 µM in assay [2] (Well no.=4821) is 94.7%.
For the compound `CCCc1nn(C)c2c(=O)[nH]c(-c3cc(S(=O)(=O)N4CCN(C)CC4)ccc3OCC)nc12` [Sildenafil], the remaining activity at 3.75 µM in assay [1] (Well no.=1836) was 96.8%. In addition, in assay [2] (Well no.=1836), the remaining activity at 1.25 µM was 99.2%.
In the case of `C[C@H](Cc1cc2c(c(C(N)=O)c1)N(CCCO)CC2)NCCOc1ccccc1OCC(F)(F)F` [Silodosin], the remaining activity at 3.75 µM in assay [1] (Well no.=6759) was 102%. Besides, the remaining activity at 1.25 µM in assay [2] (Well no.=6759) turned out to be 101%.
For the compound `COC(=O)[C@H]1[C@@H](O)[C@@]2(O)c3c(OC)cc(O[C@@H]4O[C@@H]([C@H](O)CO)CO[C@H]4OC)cc3O[C@@]2(c2ccc(OC)cc2)[C@@H]1c1ccccc1` [Silvestrol], in assay [1] (Well no.=7120), the remaining activity at 3.75 µM is 101%. The remaining activity at 1.25 µM in assay [2] (Well no.=7120) was found to be 103%.
As for `COc1cc([C@H]2Oc3cc([C@H]4Oc5cc(O)cc(O)c5C(=O)[C@@H]4O)ccc3O[C@@H]2CO)ccc1O` [Silybine], the remaining activity at 3.75 µM in assay [1] (Well no.=3753) worked out at 104%. Further, the remaining activity at 1.25 µM in assay [2] (Well no.=3753) is 101%.
Regarding `CCC(C)(C)C(=O)O[C@H]1C[C@@H](C)C=C2C=C[C@H](C)[C@H](CC[C@@H]3C[C@@H](O)CC(=O)O3)[C@H]21` [Simvastatin], the remaining activity at 3.75 µM in assay [1] (Well no.=1620) is 107%. For the same compound, the remaining activity at 1.25 µM in assay [2] (Well no.=1620) turned out to be 107%.
As to `COC1=C[C@@H]2[C@@H]3Cc4ccc(OC)c(O)c4[C@]2(CCN3C)CC1=O` [Sinomenine], in assay [1] (Well no.=3757), the remaining activity at 3.75 µM was determined as 98.8%. Moreover, in assay [2] (Well no.=3757), the remaining activity at 1.25 µM amounted to 97.3%.
With `CCc1cc(/C(C)=N/OCc2ccc(C3CCCCC3)c(C(F)(F)F)c2)ccc1CN1CC(C(=O)O)C1` [Siponimod], the remaining activity at 3.75 µM in assay [1] (Well no.=6669) stood at 93.3%. Besides, the remaining activity at 1.25 µM in assay [2] (Well no.=6669) is 97.7%.
Consider `COc1ncc(-c2nc3c(n2C(C)C)[C@H](c2ccc(Cl)cc2)N(c2cc(Cl)cn(C)c2=O)C3=O)c(OC)n1` [Siremadlin], for which the remaining activity at 3.75 µM in assay [1] (Well no.=6788) came out at 89.6%. In assay [2] (Well no.=6788), the remaining activity at 1.25 µM was 97.9%.
As to `CC(NC(=O)c1ccccc1/N=C/c1c(O)ccc2ccccc12)c1ccccc1` (centres unmarked) [Sirtinol], the remaining activity at 3.75 µM in assay [1] (Well no.=4783) was found to be 99.9%. In assay [2] (Well no.=4783), the remaining activity at 1.25 µM came to 103%.
As to `N[C@@H]1CN(c2c(F)cc3c(=O)c(C(=O)O)cn([C@@H]4C[C@@H]4F)c3c2Cl)CC12CC2` [Sitafloxacin hydrate], the remaining activity at 3.75 µM in assay [1] (Well no.=4770) was 93.3%. Further, the remaining activity at 1.25 µM in assay [2] (Well no.=4770) stood at 97.9%.
With `N[C@@H](CC(=O)N1CCn2c(nnc2C(F)(F)F)C1)Cc1cc(F)c(F)cc1F` [Sitagliptin phosphate monohydrate], the remaining activity at 3.75 µM in assay [1] (Well no.=4644) came to 102%. In assay [2] (Well no.=4644), the remaining activity at 1.25 µM was 105%.
Take `Cc1cc2c(cc1CC(=O)c1sccc1S(=O)(=O)Nc1onc(C)c1Cl)OCO2` [Sitaxentan sodium (TBC-11251)]: in assay [1] (Well no.=4887), the remaining activity at 3.75 µM stood at 98.3%. For the same compound, the remaining activity at 1.25 µM in assay [2] (Well no.=4887) is 95.6%.
With `Cc1cc2c(cc1CC(=O)c1sccc1S(=O)(=O)Nc1onc(C)c1Cl)OCO2` [Sitaxsentan (sodium)], in assay [1] (Well no.=8533), the remaining activity at 3.75 µM came to 106%. Moreover, the remaining activity at 1.25 µM in assay [2] (Well no.=8533) came to 105%.
As to `COc1ccc2c(OC)c3ccoc3nc2c1OC` [Skimmianine], the remaining activity at 3.75 µM in assay [1] (Well no.=3201) turned out to be 109%. Moreover, the remaining activity at 1.25 µM in assay [2] (Well no.=3201) amounted to 112%.
Regarding `Nc1ccc(C(=O)O)c(O)c1` [Sodium 4-Aminosalicylate], in assay [1] (Well no.=4974), the remaining activity at 3.75 µM was determined as 95.6%. Further, in assay [2] (Well no.=4974), the remaining activity at 1.25 µM was found to be 101%.
`O=C(O)C(O)Cc1ccc(O)c(O)c1` (centres unmarked) [Sodium Danshensu]: in assay [1] (Well no.=4868), the remaining activity at 3.75 µM is 100%. The remaining activity at 1.25 µM in assay [2] (Well no.=4868) is 100%.
For the compound `NC(=O)C(=O)O` [Sodium Oxamate], in assay [1] (Well no.=944), the remaining activity at 3.75 µM came to 96.9%. Also, in assay [2] (Well no.=944), the remaining activity at 1.25 µM worked out at 97.2%.
